The source of these data is paper PMC5725665, “Discovery of a Highly Selective Cell‐Active Inhibitor of the Histone Lysine Demethylases KDM2/7” (Angewandte Chemie (International Ed. in English), 2017).

The target in the first experiment is T1, JMJD2A (KDM4A) (Homo sapiens, UniProt O75164).
T1 sequence (O75164 1-1064): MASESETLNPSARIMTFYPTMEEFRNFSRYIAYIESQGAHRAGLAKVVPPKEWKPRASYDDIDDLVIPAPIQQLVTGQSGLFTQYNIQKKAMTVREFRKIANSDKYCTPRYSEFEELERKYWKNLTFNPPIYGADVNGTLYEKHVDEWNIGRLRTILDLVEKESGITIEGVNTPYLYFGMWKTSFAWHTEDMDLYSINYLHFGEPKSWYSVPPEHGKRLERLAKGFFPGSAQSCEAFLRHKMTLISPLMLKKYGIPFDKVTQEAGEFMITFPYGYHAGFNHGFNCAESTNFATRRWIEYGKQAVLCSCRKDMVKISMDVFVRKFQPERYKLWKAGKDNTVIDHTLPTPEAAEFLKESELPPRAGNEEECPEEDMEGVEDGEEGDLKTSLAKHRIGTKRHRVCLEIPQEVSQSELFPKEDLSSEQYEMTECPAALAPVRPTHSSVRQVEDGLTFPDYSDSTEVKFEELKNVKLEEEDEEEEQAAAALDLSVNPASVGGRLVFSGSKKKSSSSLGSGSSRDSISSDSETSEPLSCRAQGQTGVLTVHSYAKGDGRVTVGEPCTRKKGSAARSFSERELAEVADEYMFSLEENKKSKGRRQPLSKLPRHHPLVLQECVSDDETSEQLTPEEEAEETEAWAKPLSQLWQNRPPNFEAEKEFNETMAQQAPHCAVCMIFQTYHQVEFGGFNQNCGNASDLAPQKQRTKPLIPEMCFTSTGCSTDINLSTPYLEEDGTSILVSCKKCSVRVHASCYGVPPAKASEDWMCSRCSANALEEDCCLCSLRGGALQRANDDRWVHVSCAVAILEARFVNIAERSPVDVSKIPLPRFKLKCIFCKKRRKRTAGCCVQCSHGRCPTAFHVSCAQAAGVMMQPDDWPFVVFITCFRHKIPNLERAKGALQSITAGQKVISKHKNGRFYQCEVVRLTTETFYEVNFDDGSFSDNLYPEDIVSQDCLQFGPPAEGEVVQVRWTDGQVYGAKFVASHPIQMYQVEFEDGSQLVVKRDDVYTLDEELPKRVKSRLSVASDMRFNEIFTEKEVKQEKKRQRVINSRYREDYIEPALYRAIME
Description: biochemical. The note with it: read-out: KDM4A % Inhib. (18.75 uM). Details: AlphaScreen histone demethylase activity assay.
Consider `CC(=O)N1c2ccccc2[C@](C#N)(c2ccccc2)[C@H]1c1cccc(/C=C/CCCCCN2CCCC2)c1` (racemic) [compound 9, 9], for which the inhibition at 18.75 µM amounted to 3.4%. As to `CC(=O)N1c2ccccc2C(C#N)(c2ccccc2)C1c1ccc(C#CCCCCCN2CCCC2)o1` (centres unmarked) [compound 133, 133], the inhibition at 18.75 µM worked out at 19.8%. Regarding `CC(=O)N1c2ccccc2C(C#N)(c2ccccc2)C1c1cc(C#CCCCCCN2CCCC2)co1` (centres unmarked) [compound 134, 134], the inhibition at 18.75 µM turned out to be 19.4%.

The target in another experiment is T2, KDM2A (Homo sapiens, UniProt Q9Y2K7).
T2 construct: isolated enzyme
T2 sequence (Q9Y2K7 1-517 limits assumed): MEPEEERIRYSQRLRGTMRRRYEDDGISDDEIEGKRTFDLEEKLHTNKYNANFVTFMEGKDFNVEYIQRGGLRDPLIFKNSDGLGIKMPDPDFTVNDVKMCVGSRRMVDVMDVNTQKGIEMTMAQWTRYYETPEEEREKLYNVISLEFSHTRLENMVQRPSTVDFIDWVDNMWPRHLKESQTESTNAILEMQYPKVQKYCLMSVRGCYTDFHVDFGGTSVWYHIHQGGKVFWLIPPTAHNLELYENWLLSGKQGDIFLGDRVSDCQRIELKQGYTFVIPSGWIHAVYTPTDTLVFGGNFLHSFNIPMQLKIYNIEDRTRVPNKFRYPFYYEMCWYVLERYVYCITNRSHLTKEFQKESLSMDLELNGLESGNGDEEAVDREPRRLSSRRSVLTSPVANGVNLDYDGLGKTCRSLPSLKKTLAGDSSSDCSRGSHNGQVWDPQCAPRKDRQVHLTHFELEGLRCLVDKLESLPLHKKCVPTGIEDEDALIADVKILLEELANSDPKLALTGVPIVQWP
In words: biochemical. On the set-up: RapidFire MS histone peptide demethylation assay. The note with it: inhibitor. How it is done:
[formula] Scheme 1 A) General synthetic strategy for racemic synthesis of KDM2A inhibitors. Reagents and conditions: i) Zn powder (10 equiv), NH4Cl (15 equiv), 5:1 acetone/H2O or H2, Pd/C (10 % w/w), EtOAc; ii) ArCHO (1.3 equiv), MgSO4 (5 equiv), PhMe or ArCHO (1.3 equiv), pyrrolidine (0.1 equiv), 3 Å sieves, CH2Cl2; iii) KO^tBu (1.1 equiv), PhMe, 0 °C; iv) R^3COCl (2–5 equiv), pyridine (2–5 equiv), CH2Cl2; v) metal‐catalysed cross‐coupling. B) Key structure–activity relationships. IC50 values were determined by RapidFire MS and confirmed by AlphaScreen. All compounds are racemic. C) Catalytic enantioselective synthesis. Reagents and conditions: i) CsOH⋅H2O (2.0 equiv), catalyst 14/16 (10 mol %), PhMe, −30 °C. Catalyst 14: 89 %, d.r. 10:1, e.r. 88:12; catalyst 16: 84 %, d.r. 7:1, e.r. 17:83; ii) CH3COCl (2.0 equiv), pyridine (2.0 equiv), CH2Cl2; iii) H2, Pd/C (10 % w/w), 88 % (2 steps); iv) K2CO3 (5 equiv), Br(CH2)7Br (4 equiv), acetone, reflux, 38 %; v) K2CO3 (5 equiv) pyrrolidine (4 equiv), CH3CN, 65 %; vi) PhN(SO2CF3)2 (1.1 equiv), DIPEA (2.0 equiv), CH2Cl2, 0 °C, 85 %; vii) 7‐pyrrolidine‐hept‐1‐yne (1.5 equiv), PdCl2(PPh3)2 (5 mol %), CuI (5 mol %), HN(^iPr)2, 75 °C, 79 %; viii) H2, Pd/C (10 % w/w), MeOH, 74 %. DIPEA=(^iPr)2NEt. A base‐mediated 5‐endo‐trig cyclization of a C‐2‐substituted aromatic imine afforded the racemic indoline core with two adjacent stereocenters. Subsequent acylation of the indoline ring system conferred stability towards oxidation and provided a handle for modulating polarity. Finally, metal‐catalysed cross‐coupling of the aryl bromide provided access to a variety of linkers between the indoline core and pyrrolidine capping group. In total, 45 racemic compounds were synthesized, and IC50 values for inhibition of KDM2A were determined using two orthogonal enzyme activity assays: AlphaScreen25 and RapidFire MS26 (see Section S3.1 in the Supporting Information for complete inhibition data). Key structure–activity relationships are summarized below (Scheme 1 B, compounds 2–12).
With `N#C[C@]1(c2ccccc2)c2ccccc2N[C@@H]1c1cncc(C#CCCCCCN2CCCC2)c1` (relative stereo) [compound 137, 137], the “KDM2A RapidFire pIC50” value was 5.884. Same read-out and setting: in the case of `N#CCC(=O)N1c2ccccc2[C@](C#N)(c2ccccc2)[C@H]1c1cncc(CCCCCCCN2CCCC2)c1` (relative stereo) [compound 139, 139] it was 6.368; in that of `N#C[C@]1(c2ccccc2)c2ccccc2N[C@@H]1c1cncc(CCCCCCCN2CCCC2)c1` (relative stereo) [compound 142, 142], 6.708; in that of `CC(=O)N1c2ccccc2[C@@](C#N)(c2ccccc2)[C@@H]1c1cncc(OCCCCCCCN2CCCC2)c1` [(S,S)-3], 6.401.

The same experiment, now with this note: read-out: KDM2A RapidFire pIC50 (converted).
Take `CC(=O)N1c2ccccc2[C@](C#N)(c2ccccc2)[C@H]1c1cccc(OCCCCN2CCCC2)c1` (racemic) [compound 56, (2RS,3RS)-1-Acetyl-3-phenyl-2-(3-(4-(pyrrolidin-1-yl)butoxy)phenyl)indoline-3-carbonitrile]: the IC50 was 2020 nM.

Regarding `CC(=O)N1c2ccccc2[C@](C#N)(c2ccccc2)[C@H]1c1cccc(OCCCCCN2CCCC2)c1` (racemic) [compound 57, (2RS,3RS)-1-Acetyl-3-phenyl-2-(3-((5-(pyrrolidin-1-yl)pentyl)oxy)phenyl)indoline-3-carbonitrile], the IC50 was 1250 nM. Regarding `CC(=O)N1c2ccccc2[C@](C#N)(c2ccccc2)[C@H]1c1cccc(OCCCCCCN2CCCC2)c1` (racemic) [compound 58, (2RS,3RS)-1-Acetyl-3-phenyl-2-(3-((6-(pyrrolidin-1-yl)hexyl)oxy)phenyl)indoline-3-carbonitrile], the IC50 is 1030 nM. On the same count and under the same terms, with `CC(=O)N1c2ccccc2[C@](C#N)(c2ccccc2)[C@H]1c1cccc(OCCCCCCCN2CCCC2)c1` (racemic) [compound 59, (2RS,3RS)-1-Acetyl-3-phenyl-2-(3-((7-(pyrrolidin-1-yl)heptyl)oxy)phenyl)indoline-3-carbonitrile] the figure was 893 nM; with `CC(=O)N1c2ccccc2[C@](C#N)(c2ccccc2)[C@H]1c1cccc(OCCCCCCCCN2CCCC2)c1` (racemic) [compound 60, (2RS,3RS)-1-Acetyl-3-phenyl-2-(3-((8-(pyrrolidin-1-yl)octyl)oxy)phenyl)indoline-3-carbonitrile], 1380 nM; with `CC(=O)N1c2ccccc2[C@](C#N)(c2ccccc2)[C@H]1c1cccc(OCCCCCCCCCN2CCCC2)c1` (racemic) [compound 62, (2RS,3RS)-1-Acetyl-3-phenyl-2-(3-((9-(pyrrolidin-1-yl)nonyl)oxy)phenyl)indoline-3-carbonitrile], 1510 nM. The same measure, in the same setting: in the case of `N#C[C@]1(c2ccccc2)c2ccccc2N(C(=O)c2ccccc2)[C@@H]1c1cccc(OCCCCCCCN2CCCC2)c1` (racemic) [compound 63, (2RS,3RS)-1-Benzoyl-3-phenyl-2-(3-((7-(pyrrolidin-1-yl)heptyl)oxy)phenyl)indoline-3-carbonitrile] it was 2020 nM. On the same count and under the same terms, in the case of `N#C[C@]1(c2ccccc2)c2ccccc2N(C(=O)c2ccco2)[C@@H]1c1cccc(OCCCCCCCN2CCCC2)c1` (racemic) [compound 64, (2RS,3RS)-1-(Furan-2-carbonyl)-3-phenyl-2-(3-((7-(pyrrolidin-1-yl)heptyl)oxy)phenyl)indoline-3-carbonitrile] it was 883 nM; in that of `CC(C)CC(=O)N1c2ccccc2[C@](C#N)(c2ccccc2)[C@H]1c1cccc(OCCCCCCCN2CCCC2)c1` (racemic) [compound 65, (2RS,3RS)-1-(3-Methylbutanoyl)-3-phenyl-2-(3-((7-(pyrrolidin-1-yl)heptyl)oxy)phenyl)indoline-3-carbonitrile], 1350 nM. For `N#C[C@]1(c2ccccc2)c2ccccc2N(C(=O)c2ccc(C(F)(F)F)cc2)[C@@H]1c1cccc(OCCCCCCCN2CCCC2)c1` (racemic) [compound 66, (2RS,3RS)-3-Phenyl-2-(3-((7-(pyrrolidin-1-yl)heptyl)oxy)phenyl)-1-(4-(trifluoromethyl)benzoyl)indoline-3-carbonitrile], the IC50 is 1320 nM. On the same count and under the same terms, in the case of `CC(=O)N1c2ccccc2[C@](C#N)(c2ccccc2)[C@H]1c1cccc(OCCCCCCCN2CCCCC2)c1` (racemic) [compound 69, (2RS,3RS)-1-Acetyl-3-phenyl-2-(3-((7-(piperidin-1-yl)heptyl)oxy)phenyl)indoline-3-carbonitrile] it was 1070 nM; in that of `CC(=O)N1c2ccccc2[C@](C#N)(c2ccccc2)[C@H]1c1cccc(OCCCCCCCN2CCOCC2)c1` (racemic) [compound 70, (2RS,3RS)-1-Acetyl-2-(3-((7-morpholinoheptyl)oxy)phenyl)-3-phenylindoline-3-carbonitrile], 3260 nM; in that of `CC(=O)N1c2ccccc2[C@](C#N)(c2ccccc2)[C@H]1c1cncc(/C=C\CCCCCN2CCCC2)c1` (racemic) [compound 152, (2RS,3RS)-1-Acetyl-3-phenyl-2-(5-((Z)-7-(pyrrolidin-1-yl)hept-1-en-1-yl)pyridin-3-yl)indoline-3-carbonitrile], 838 nM.
